{"source": "ChEMBL document CHEMBL4507260", "about": "(2021)", "key": {"[1]": {"biological_target": "P2X receptor (Rattus norvegicus) (UniProt P51579+P49653+P51578+Q64663+P47824+P51577+P49654)", "conditions": "Compound concentration 10.0 uM"}, "[2]": {"biological_target": "B2 bradykinin receptor (Homo sapiens) (UniProt P30411)", "sequence (P30411 whole entry)": "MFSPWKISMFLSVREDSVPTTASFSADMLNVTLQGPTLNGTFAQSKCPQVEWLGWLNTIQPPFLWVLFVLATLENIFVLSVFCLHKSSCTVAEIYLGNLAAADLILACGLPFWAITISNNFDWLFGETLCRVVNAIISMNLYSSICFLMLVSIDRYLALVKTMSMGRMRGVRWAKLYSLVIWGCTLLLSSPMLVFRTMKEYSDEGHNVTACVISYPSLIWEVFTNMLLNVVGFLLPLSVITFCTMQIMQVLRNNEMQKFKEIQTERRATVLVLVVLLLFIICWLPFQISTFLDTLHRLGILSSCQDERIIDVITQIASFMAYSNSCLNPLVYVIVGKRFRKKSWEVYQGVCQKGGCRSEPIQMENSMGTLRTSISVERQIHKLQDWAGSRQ", "conditions": "Compound concentration 10.0 uM"}, "[3]": {"biological_target": "D(4) dopamine receptor (Homo sapiens, UniProt P21917)", "assay": "Radioligand assay (DRD4.7)"}, "[4]": {"biological_target": "Calcitonin-gene-related peptide receptor, CALCRL/RAMP1 (Homo sapiens) (UniProt O60894+Q16602)", "conditions": "Compound concentration 10.0 uM"}, "[5]": {"biological_target": "Melatonin receptor type 1A (Homo sapiens) (UniProt P48039)", "assay": "ML1 CEREP ligand profiling", "conditions": "Compound concentration 10.0 uM"}, "[6]": {"biological_target": "Type-1 angiotensin II receptor (Homo sapiens) (UniProt P30556)", "sequence (P30556 whole entry)": "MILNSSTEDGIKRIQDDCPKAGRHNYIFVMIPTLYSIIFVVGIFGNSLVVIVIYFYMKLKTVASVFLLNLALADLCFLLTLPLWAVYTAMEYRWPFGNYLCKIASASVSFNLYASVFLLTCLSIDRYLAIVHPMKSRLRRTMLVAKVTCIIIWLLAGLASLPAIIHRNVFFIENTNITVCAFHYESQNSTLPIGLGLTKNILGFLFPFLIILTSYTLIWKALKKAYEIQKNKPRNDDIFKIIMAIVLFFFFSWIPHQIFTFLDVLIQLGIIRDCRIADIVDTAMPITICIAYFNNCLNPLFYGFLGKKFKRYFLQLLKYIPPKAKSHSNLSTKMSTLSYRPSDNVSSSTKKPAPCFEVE", "conditions": "Compound concentration 10.0 uM"}, "[7]": {"biological_target": "Beta-1 adrenergic receptor (Homo sapiens) (UniProt P08588)", "sequence (P08588 whole entry, looked up)": "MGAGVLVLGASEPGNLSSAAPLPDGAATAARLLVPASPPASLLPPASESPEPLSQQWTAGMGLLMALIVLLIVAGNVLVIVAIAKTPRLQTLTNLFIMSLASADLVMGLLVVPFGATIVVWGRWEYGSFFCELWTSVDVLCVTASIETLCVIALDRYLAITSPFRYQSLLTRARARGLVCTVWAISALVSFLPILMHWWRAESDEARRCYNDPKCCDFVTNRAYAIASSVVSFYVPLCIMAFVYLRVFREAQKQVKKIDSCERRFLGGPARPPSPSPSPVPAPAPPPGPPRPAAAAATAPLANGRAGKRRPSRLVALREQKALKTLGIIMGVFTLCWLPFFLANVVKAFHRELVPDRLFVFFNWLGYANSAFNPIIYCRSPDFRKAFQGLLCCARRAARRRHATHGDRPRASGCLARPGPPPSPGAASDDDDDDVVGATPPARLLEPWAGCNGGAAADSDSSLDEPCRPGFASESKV", "conditions": "Compound concentration 10.0 uM"}, "[8]": {"biological_target": "5-hydroxytryptamine receptor 6 (Homo sapiens) (UniProt P50406)", "conditions": "Compound concentration 10.0 uM"}, "[9]": {"biological_target": "Galanin receptor type 1 (Homo sapiens) (UniProt P47211)", "sequence (P47211 whole entry)": "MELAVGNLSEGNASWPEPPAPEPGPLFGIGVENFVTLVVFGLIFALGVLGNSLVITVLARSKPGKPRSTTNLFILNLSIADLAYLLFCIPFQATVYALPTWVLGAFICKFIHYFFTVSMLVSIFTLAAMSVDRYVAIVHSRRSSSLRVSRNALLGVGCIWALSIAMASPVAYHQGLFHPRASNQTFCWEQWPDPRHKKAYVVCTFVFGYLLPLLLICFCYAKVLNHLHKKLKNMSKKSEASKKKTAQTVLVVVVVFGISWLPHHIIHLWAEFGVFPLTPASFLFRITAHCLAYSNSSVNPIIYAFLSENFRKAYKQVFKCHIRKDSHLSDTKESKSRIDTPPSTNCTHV", "conditions": "Compound concentration 10.0 uM"}, "[10]": {"biological_target": "T1, GABA-A receptor; anion channel (Homo sapiens) (UniProt P14867+P47870+P18507+P28472+P48169+Q99928+Q9UN88+P34903+O00591+O14764+Q8N1C3+P18505+P78334+P47869+P31644+Q16445)", "conditions": "Compound concentration 10.0 uM"}, "[11]": {"biological_target": "Endothelin-1 receptor (Homo sapiens) (UniProt P25101)", "sequence (P25101 whole entry)": "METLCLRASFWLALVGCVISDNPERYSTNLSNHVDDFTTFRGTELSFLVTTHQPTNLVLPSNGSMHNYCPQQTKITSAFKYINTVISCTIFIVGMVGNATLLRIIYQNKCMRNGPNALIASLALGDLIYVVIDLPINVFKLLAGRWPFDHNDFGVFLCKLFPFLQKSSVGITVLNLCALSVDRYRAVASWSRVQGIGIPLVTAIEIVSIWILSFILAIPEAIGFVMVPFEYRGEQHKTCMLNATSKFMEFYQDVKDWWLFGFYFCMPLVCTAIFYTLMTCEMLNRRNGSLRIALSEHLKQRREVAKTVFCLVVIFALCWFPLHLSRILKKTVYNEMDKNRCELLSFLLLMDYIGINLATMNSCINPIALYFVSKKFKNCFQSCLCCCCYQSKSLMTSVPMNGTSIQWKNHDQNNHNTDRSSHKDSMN", "conditions": "Compound concentration 10.0 uM"}, "[12]": {"biological_target": "Tumor necrosis factor (Homo sapiens) (UniProt P01375)", "sequence (P01375 whole entry)": "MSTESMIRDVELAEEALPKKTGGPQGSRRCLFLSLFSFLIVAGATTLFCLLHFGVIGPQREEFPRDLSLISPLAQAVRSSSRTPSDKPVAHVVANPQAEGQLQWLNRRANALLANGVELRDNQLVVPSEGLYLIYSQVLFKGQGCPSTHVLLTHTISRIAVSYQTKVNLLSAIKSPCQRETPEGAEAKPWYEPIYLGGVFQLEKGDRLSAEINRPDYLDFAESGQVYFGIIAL", "conditions": "Compound concentration 10.0 uM"}, "[13]": {"biological_target": "Prostacyclin receptor (Homo sapiens) (UniProt P43119)", "sequence (P43119 whole entry)": "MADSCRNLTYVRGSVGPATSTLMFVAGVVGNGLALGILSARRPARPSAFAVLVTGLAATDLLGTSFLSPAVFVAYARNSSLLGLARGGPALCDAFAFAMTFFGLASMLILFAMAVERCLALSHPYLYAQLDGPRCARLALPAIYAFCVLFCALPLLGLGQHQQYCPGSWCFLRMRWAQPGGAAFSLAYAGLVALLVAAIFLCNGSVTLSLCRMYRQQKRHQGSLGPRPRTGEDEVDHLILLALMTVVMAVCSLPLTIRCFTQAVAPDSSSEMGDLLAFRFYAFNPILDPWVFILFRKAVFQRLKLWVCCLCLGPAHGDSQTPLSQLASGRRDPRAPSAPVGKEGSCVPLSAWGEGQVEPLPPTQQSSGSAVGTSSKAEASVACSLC", "conditions": "Compound concentration 10.0 uM"}, "[14]": {"biological_target": "5-hydroxytryptamine receptor 1B (Homo sapiens) (UniProt P28222)", "conditions": "Compound concentration 10.0 uM"}, "[15]": {"biological_target": "Neurotensin receptor type 1 (Homo sapiens) (UniProt P30989)", "sequence (P30989 whole entry)": "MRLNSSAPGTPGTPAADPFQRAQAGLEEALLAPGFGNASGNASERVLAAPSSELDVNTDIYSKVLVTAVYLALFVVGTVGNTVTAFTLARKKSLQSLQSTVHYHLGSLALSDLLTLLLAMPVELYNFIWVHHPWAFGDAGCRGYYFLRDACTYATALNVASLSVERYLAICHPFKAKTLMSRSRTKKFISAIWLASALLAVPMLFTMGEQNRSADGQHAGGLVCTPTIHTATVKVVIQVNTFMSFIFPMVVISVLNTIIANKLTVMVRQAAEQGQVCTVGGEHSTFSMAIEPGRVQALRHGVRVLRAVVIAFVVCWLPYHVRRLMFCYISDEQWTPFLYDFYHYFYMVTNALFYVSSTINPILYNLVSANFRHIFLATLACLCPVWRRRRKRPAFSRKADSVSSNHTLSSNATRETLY", "conditions": "Compound concentration 10.0 uM"}, "[16]": {"biological_target": "Mu-type opioid receptor (Homo sapiens) (UniProt P35372)", "sequence (P35372 whole entry)": "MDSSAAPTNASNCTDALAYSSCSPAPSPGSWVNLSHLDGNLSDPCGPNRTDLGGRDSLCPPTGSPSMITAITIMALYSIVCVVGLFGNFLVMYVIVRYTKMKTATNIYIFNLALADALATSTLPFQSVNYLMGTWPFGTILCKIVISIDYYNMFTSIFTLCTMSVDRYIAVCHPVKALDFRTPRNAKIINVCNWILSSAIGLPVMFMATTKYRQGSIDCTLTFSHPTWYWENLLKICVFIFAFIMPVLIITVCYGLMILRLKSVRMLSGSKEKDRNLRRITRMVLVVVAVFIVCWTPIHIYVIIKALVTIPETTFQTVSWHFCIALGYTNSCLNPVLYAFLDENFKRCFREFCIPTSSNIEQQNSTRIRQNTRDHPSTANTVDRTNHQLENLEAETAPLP", "assay": "mu CEREP ligand profiling", "conditions": "Compound concentration 10.0 uM"}, "[17]": {"biological_target": "T1, GABA-A receptor; anion channel (Homo sapiens)", "conditions": "Compound concentration 10.0 uM", "remark": "listed apart in the source"}, "[18]": {"biological_target": "T2, D(4) dopamine receptor (Homo sapiens, UniProt P21917)", "T2 sequence (P21917 whole entry)": "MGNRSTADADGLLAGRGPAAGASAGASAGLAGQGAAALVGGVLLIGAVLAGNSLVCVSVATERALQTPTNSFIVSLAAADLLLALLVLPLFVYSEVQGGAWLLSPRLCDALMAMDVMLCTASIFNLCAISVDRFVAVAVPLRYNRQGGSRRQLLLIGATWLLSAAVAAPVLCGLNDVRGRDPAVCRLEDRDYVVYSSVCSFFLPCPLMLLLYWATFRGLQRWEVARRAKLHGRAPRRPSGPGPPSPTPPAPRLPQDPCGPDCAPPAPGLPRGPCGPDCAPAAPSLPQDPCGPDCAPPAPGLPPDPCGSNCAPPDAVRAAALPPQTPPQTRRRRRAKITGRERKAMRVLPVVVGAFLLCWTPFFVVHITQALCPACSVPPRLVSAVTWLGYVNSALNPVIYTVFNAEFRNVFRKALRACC", "assay": "Radioligand assay (DRD4.4)"}, "[19]": {"biological_target": "D(1B) dopamine receptor (Homo sapiens) (UniProt P21918)", "conditions": "Compound concentration 10.0 uM"}, "[20]": {"biological_target": "Voltage-gated potassium channel (K+V channel) (Homo sapiens, UniProt O43525+O43526+O95259+P16389+P17658+P22001+P22459+P22460+P48547+P51787+P56696+Q03721+Q09470+Q12809+Q14003+Q14721+Q16322+Q6PIU1+Q8NCM2+Q8TAE7+Q8TDN1+Q8TDN2+Q92953+Q96KK3+Q96L42+Q96PR1+Q96RP8+Q9BQ31+Q9H252+Q9H3M0+Q9NR82+Q9NS40+Q9NSA2+Q9NZV8+Q9UIX4+Q9UJ96+Q9UK17+Q9ULD8+Q9ULS6+Q9UQ05)", "assay": "K+V channel CEREP ligand profiling", "format": "protein assay", "conditions": "compound concentration 10 uM"}, "[21]": {"biological_target": "C-X-C chemokine receptor type 2 (Homo sapiens) (UniProt P25025)", "sequence (P25025 whole entry)": "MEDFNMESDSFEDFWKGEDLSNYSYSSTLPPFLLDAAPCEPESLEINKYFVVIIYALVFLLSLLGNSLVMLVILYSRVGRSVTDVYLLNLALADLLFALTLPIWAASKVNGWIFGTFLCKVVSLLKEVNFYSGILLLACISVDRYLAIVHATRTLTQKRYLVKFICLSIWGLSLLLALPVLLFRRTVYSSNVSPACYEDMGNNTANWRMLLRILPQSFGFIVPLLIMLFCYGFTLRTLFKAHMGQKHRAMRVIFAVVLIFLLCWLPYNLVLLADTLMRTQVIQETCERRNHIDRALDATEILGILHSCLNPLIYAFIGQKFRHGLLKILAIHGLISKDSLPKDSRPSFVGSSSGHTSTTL", "conditions": "Compound concentration 10.0 uM"}, "[22]": {"biological_target": "Sodium channel alpha subunit (Na+ channel) (Homo sapiens, UniProt P35498+P35499+Q01118+Q14524+Q15858+Q99250+Q9NY46+Q9UI33+Q9UQD0+Q9Y5Y9)", "assay": "Na+ channel CEREP ligand profiling", "format": "protein assay", "conditions": "compound concentration 10 uM"}, "[23]": {"biological_target": "Muscarinic acetylcholine receptor M3 (Homo sapiens) (UniProt P20309)", "conditions": "Compound concentration 10.0 uM"}, "[24]": {"biological_target": "Vasopressin V1a receptor (Homo sapiens) (UniProt P37288)", "sequence (P37288 whole entry, looked up)": "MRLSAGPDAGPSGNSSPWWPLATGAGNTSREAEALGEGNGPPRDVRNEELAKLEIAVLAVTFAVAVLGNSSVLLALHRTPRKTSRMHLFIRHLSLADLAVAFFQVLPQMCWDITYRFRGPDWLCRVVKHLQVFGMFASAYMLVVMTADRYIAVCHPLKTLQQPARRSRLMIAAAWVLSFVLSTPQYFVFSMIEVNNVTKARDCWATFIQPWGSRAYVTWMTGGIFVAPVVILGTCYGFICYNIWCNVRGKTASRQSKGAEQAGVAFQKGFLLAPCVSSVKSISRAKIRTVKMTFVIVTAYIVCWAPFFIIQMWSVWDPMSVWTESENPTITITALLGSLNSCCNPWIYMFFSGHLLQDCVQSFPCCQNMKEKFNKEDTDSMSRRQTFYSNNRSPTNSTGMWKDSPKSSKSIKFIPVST", "conditions": "Compound concentration 10.0 uM"}, "[25]": {"biological_target": "Natriuretic peptides A (Homo sapiens) (UniProt P01160)", "sequence (P01160 whole entry)": "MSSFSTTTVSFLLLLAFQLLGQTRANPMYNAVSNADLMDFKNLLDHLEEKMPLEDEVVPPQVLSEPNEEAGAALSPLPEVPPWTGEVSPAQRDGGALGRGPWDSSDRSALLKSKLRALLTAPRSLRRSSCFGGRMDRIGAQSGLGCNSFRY", "conditions": "Compound concentration 10.0 uM"}, "[26]": {"biological_target": "T2, D(4) dopamine receptor", "assay": "Radioligand assay using 3[H] A-369508"}, "[27]": {"biological_target": "Kappa-type opioid receptor (Homo sapiens) (UniProt P41145)", "assay": "kappa CEREP ligand profiling", "conditions": "Compound concentration 10.0 uM"}, "[28]": {"biological_target": "Histamine H1 receptor (Homo sapiens) (UniProt P35367)", "assay": "H1 CEREP ligand profiling", "conditions": "Compound concentration 10.0 uM"}, "[29]": {"biological_target": "Adenosine receptor A3 (Homo sapiens) (UniProt P0DMS8)", "assay": "A3 CEREP ligand profiling", "conditions": "Compound concentration 10.0 uM"}, "[30]": {"biological_target": "5-hydroxytryptamine receptor 2C (Homo sapiens) (UniProt P28335)", "conditions": "Compound concentration 10.0 uM"}, "[31]": {"biological_target": "Cannabinoid receptor 1 (Homo sapiens) (UniProt P21554)", "sequence (P21554 whole entry)": "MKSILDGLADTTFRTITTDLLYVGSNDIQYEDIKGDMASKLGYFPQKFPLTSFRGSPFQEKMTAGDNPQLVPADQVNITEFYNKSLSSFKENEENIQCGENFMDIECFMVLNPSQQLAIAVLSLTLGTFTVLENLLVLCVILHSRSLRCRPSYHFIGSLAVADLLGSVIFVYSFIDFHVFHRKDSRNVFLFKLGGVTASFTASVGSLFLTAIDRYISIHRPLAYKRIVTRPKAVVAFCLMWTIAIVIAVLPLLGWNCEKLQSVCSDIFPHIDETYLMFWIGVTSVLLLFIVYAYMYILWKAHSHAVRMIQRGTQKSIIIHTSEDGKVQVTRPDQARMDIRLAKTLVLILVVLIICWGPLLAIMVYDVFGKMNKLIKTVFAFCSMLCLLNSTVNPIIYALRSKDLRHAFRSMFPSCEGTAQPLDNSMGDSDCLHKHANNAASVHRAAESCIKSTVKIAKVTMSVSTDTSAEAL", "conditions": "Compound concentration 10.0 uM"}, "[32]": {"biological_target": "Bombesin receptor (Homo sapiens) (UniProt P28336+P32247+P30550)", "conditions": "Compound concentration 10.0 uM"}, "[33]": {"biological_target": "Dual specificity protein kinase CLK4 (Homo sapiens) (UniProt Q9HAZ1)", "conditions": "Compound concentration 1000.0 nM"}, "[34]": {"test_system": "Epidermal growth factor receptor (Homo sapiens), P00533 [UNDEFINED MUTATION]", "conditions": "Compound concentration 1000.0 nM"}}, "note": "Activity calls are given as the source filed them. No cut-off for these calls is given here.", "data": [{"smiles": "c1ccc(N2CCN(Cc3nc4ccccc4[nH]3)CC2)nc1", "note": "[ABT-724]", "values": [{"measurement": "inhibition", "setting": "[1]", "value": "< 10", "unit": "%"}, {"measurement": "inhibition", "setting": "[2]", "value": "< 10", "unit": "%"}, {"measurement": "Ki", "setting": "[3]", "value": "46.8 nM (active)"}, {"measurement": "inhibition", "setting": "[4]", "value": "< 10", "unit": "%"}, {"measurement": "inhibition", "setting": "[5]", "value": 51, "unit": "%"}, {"measurement": "inhibition", "setting": "[6]", "value": "< 10", "unit": "%"}, {"measurement": "inhibition", "setting": "[7]", "value": "< 10", "unit": "%"}, {"measurement": "inhibition", "setting": "[8]", "value": "< 10", "unit": "%"}, {"measurement": "inhibition", "setting": "[9]", "value": "< 10", "unit": "%"}, {"measurement": "inhibition", "setting": "[10]", "value": "< 10", "unit": "%"}, {"measurement": "inhibition", "setting": "[11]", "value": "< 10", "unit": "%"}, {"measurement": "inhibition", "setting": "[12]", "value": "< 10", "unit": "%"}, {"measurement": "inhibition", "setting": "[13]", "value": "< 10", "unit": "%"}, {"measurement": "inhibition", "setting": "[14]", "value": "< 10", "unit": "%"}, {"measurement": "inhibition", "setting": "[15]", "value": "< 10", "unit": "%"}, {"measurement": "inhibition", "setting": "[16]", "value": 51, "unit": "%"}, {"measurement": "inhibition", "setting": "[17]", "value": "< 10", "unit": "%"}, {"measurement": "Ki", "setting": "[18]", "value": "63.6 nM (active)"}, {"measurement": "inhibition", "setting": "[19]", "value": "< 10", "unit": "%"}, {"measurement": "inhibition at 10 µM", "setting": "[20]", "value": "< 10% (not active)"}, {"measurement": "inhibition", "setting": "[21]", "value": "< 10", "unit": "%"}, {"measurement": "inhibition at 10 µM", "setting": "[22]", "value": "< 10% (not active)"}, {"measurement": "inhibition", "setting": "[23]", "value": "< 10", "unit": "%"}, {"measurement": "inhibition", "setting": "[24]", "value": "< 10", "unit": "%"}, {"measurement": "inhibition", "setting": "[25]", "value": "< 10", "unit": "%"}, {"measurement": "Ki", "setting": "[26]", "value": "57.5 nM (active)"}, {"measurement": "inhibition", "setting": "[27]", "value": 68, "unit": "%"}, {"measurement": "inhibition", "setting": "[28]", "value": 17, "unit": "%"}, {"measurement": "inhibition", "setting": "[29]", "value": 11, "unit": "%"}, {"measurement": "inhibition", "setting": "[30]", "value": 10, "unit": "%"}, {"measurement": "inhibition", "setting": "[31]", "value": "< 10", "unit": "%"}, {"measurement": "inhibition", "setting": "[32]", "value": "< 10", "unit": "%"}]}, {"smiles": "CSc1cccnc1N1CCN(Cc2nc3ccccc3[nH]2)CC1", "note": "[A-769]", "values": [{"measurement": "residual activity", "setting": "[33]", "value": 100, "unit": "%"}, {"measurement": "residual activity", "setting": "[34]", "value": 82, "unit": "%"}]}]}
